Experimental findings from paper PMC8306930, “A Comparative Analysis of the In Vitro Anticancer Activity of Iridium(III) {η^5-C5Me4R} Complexes with Variable R Groups” (International Journal of Molecular Sciences, 2021) are described below.

Data set [1] concerns MCF-7 human breast cancer cells. Put plainly: CV viability assay, MCF-7. To be noted: MCF-7, 72 h exposure, mean ± SD. The class given is cell-based. The text has this:
(§1) The rat astrocytoma C6 cell line and murine melanoma B16 cell line were kindly gifted by Dr. L. Harhaji–Trajkovic, Institute for Biological Research “Sinisa Stankovic”—National Institute of Republic of Serbia (IBISS), and from Dr. Sinisa Radulovic (Institute for Oncology and Radiology of Serbia), respectively. Human colorectal (SW620 and HCT116), breast (MCF-7), and ovarian (A2780) cancer cell lines and non-malignant fibroblast cell line (MRC5) were purchased from the American Type Culture Collection (ATCC, Manassas, Virginia, USA). […] For viability assays, cells were seeded in listed densities/well: B16 and C6: 3 × 10^3; SW620: 9 × 10^3; A2780 and HCT116: 5 × 10^3; MCF-7: 8 × 10^3 and MRC5: 7 × 10^3. For flow cytometry, A2780 cells were seeded at 2 × 10^5 density/well in 6-well plates. Peritoneal macrophages were collected from the peritoneal cavity of C57BL/6 mice from the animal facility of IBISS by cavity lavage with ice-cold PBS. […] Macrophages were counted, seeded at 2 × 10^5 cells/well in 96-well plates for viability assay, and then left for 2 h to adhere. Before treatment, non-adherent cells were removed. The handling of animals and protocol for obtaining macrophages is in the agreement with the rules of the European Union and approved by the Institutional Animal Care and Use Committee at IBISS (No. 02-09/16).
(§2) Stock solutions of 1b, 1c, 1d, and 1e were prepared in ethanol at concentration of 20 mM and kept at −20 °C, while 10 mM stock solution of cisplatin was prepared in DMF just before the usage. Desired final concentrations were obtained by dilution in culture medium.
(§3) Cells were treated with various concentrations (up to 50 or 100 µM) of the above-mentioned complexes for 72 h. For the detection of mitochondrial respiration, cells were cultivated in the presence of MTT staining solution (0.5 mg/mL) for approximately 1 h at 37 °C. The dye was then discarded, and the formed formazan crystals (purple) were dissolved in DMSO. For an evaluation of viable attached cells, cells were fixed with 4% PFA for 10 min at room temperature, and subsequently stained for 15 min with 0.02% CV solution. […] The absorbance was measured with an automated microplate reader at 540 nm, with a reference wavelength of 670 nm. The IC50 values were calculated using a four-parameter logistic function and presented as mean ± SD from three independent experiments.

In data set [2] the test system is SW620 human colorectal adenocarcinoma cells. As to the kind of experiment: MTT viability assay, SW620. The class given is cell-based. To be noted: SW620, 72 h exposure, mean ± SD.
From the text: as §1, §2, §3

Data set [3] concerns MCF-7 human breast cancer cells. As to the kind of experiment: MTT viability assay, MCF-7. To be noted: MCF-7, 72 h exposure, mean ± SD. The class given is cell-based.
From the text: as §1, §2, §3

Data set [4] relates to HCT116 human colorectal carcinoma cells. Put plainly: MTT viability assay, HCT116. It is filed as cell-based. The following applies: HCT116, 72 h exposure, mean ± SD.
From the text: as §1, §2, §3

Data set [5] shares this test system. Put plainly: CV viability assay, HCT116. It is filed as cell-based. The following applies: HCT116, 72 h exposure, mean ± SD.
From the text: as §1, §2, §3

In data set [6] the test system is MRC5 human fibroblast cells. As to the kind of experiment: MTT viability assay, MRC5. The following applies: MRC5, 72 h exposure, mean ± SD. It is filed as cell-based.
From the text: as §1, §2, §3

Data set [7] concerns SW620 human colorectal adenocarcinoma cells. As to the kind of experiment: CV viability assay, SW620. To be noted: SW620, 72 h exposure, mean ± SD. It is filed as cell-based.
From the text: as §1, §2, §3

The test system of data set [8] is B16 mouse melanoma cells. As to the kind of experiment: CV (crystal violet) viability assay, B16. The class given is cell-based. The following applies: B16, 72 h exposure, mean ± SD.
From the text: as §1, §2, §3

The subject of data set [9] is C6 rat glioma cells. As to the kind of experiment: MTT viability assay, C6. It is filed as cell-based. The following applies: C6, 72 h exposure, mean ± SD.
From the text: as §1, §2, §3

Data set [10] has as its system B16 mouse melanoma cells. As to the kind of experiment: MTT viability assay, B16. The class given is cell-based. To be noted: B16, 72 h exposure, mean ± SD.
From the text: as §1, §2, §3

Data set [11] has as its system A2780 human ovarian cancer cells. As to the kind of experiment: CV viability assay, A2780. The class given is cell-based. To be noted: A2780, 72 h exposure, mean ± SD.
From the text: as §1, §2, §3

The test system is the same in data set [12]. As to the kind of experiment: MTT viability assay, A2780. It is filed as cell-based. The following applies: A2780, 72 h exposure, mean ± SD.
From the text: as §1, §2, §3

For data set [13], the system named is C6 rat glioma cells. As to the kind of experiment: CV viability assay, C6. The class given is cell-based. The following applies: C6, 72 h exposure, mean ± SD.
From the text: as §1, §2, §3

Data set [14] deals with MRC5 human fibroblast cells. As to the kind of experiment: CV viability assay, MRC5. It is filed as cell-based. To be noted: MRC5, 72 h exposure, mean ± SD.
From the text: as §1, §2, §3

Data set [15] has as its system panel of six human and rodent cancer cell lines and MRC5. As to the kind of experiment: Cytotoxic activity over the whole cell line panel (MTT and CV). The class given is cell-based. The following applies: 72 h; for Cytotoxic activity in words: all investigated cell lines. As for the experimental part:
Cells were treated with various concentrations (up to 50 or 100 µM) of the above-mentioned complexes for 72 h. For the detection of mitochondrial respiration, cells were cultivated in the presence of MTT staining solution (0.5 mg/mL) for approximately 1 h at 37 °C. The dye was then discarded, and the formed formazan crystals (purple) were dissolved in DMSO. For an evaluation of viable attached cells, cells were fixed with 4% PFA for 10 min at room temperature, and subsequently stained for 15 min with 0.02% CV solution. Cells were then washed with tap water, dried in air, and the CV dye was dissolved in 33% acetic acid. The absorbance was measured with an automated microplate reader at 540 nm, with a reference wavelength of 670 nm. The IC50 values were calculated using a four-parameter logistic function and presented as mean ± SD from three independent experiments.

Data set [16] can be described thus: Stability in D2O mixtures by 1H NMR. The class given is physicochemical. The following applies: for Variation of 1H NMR spectra on storage: acetone-d6/D2O 2:1 (1b,d) or methanol-d4/D2O 2:1 (1c), 72 h at 37 °C, progressive precipitation. As for the experimental part: Complexes were dissolved in acetone-d6/D2O 2:1 (1b,d), DMSO-d6/D2O 2:1 (2a–d and 3), or methanol-d4/D2O 2:1 (1c) ([Ir] ≈ 10^−3 mol L^−1), then dimethyl sulfone (0.05 mL, 0.164 mmol) was added as internal standard. The mixtures were filtered through a celite pad, and the filtrated solutions were analyzed by ^1H NMR spectroscopy.
The solutions were then stored for 72 h at 37 °C, and new NMR analyses were subsequently performed.

Turning to `N.N.[Cl][Pt][Cl]` [Cisplatin, cisplatin, reference compound], the 50% inhibitory concentration (IC50) in data set [1] is 1.2 ± 0.3 µM; in data set [2] it was 11.6 ± 0.1 µM; in data set [3], 0.8 ± 0.2 µM; in data set [4], 1.5 ± 0.1 µM; in data set [5] it was 8 ± 0.7 µM; in data set [6], 0.6 ± 0.2 µM. The IC50 in data set [7] was 11 ± 3 µM; in the data set on B16 mouse melanoma cells [8] it was 11.6 ± 0.3 µM; with C6 rat glioma cells [9] it was 0.6 ± 0.2 µM; with B16 mouse melanoma cells [10], 5.6 ± 0.2 µM; in [11] it was 3.8 ± 0.5 µM; in [12] it was 1.9 ± 0.2 µM. For the same compound, the IC50 in the data set with C6 rat glioma cells [13] was found to be 1.2 ± 0.1 µM; in [14], 0.8 ± 0.1 µM.
Consider `Cc1[cH-]c(C)c(C)c1C.Cc1[cH-]c(C)c(C)c1C.[Cl-].[Cl-].[Cl-].[Cl-].[Ir+3].[Ir+3]` [Complex 1b], for which the IC50 in data set [1], in [2], in data set [3], in data set [4], in data set [5] and in data set [6] was over 50 µM in each case. The IC50 (in data set [7]; with B16 mouse melanoma cells [8]; in the data set with C6 rat glioma cells [9]; with B16 mouse melanoma cells [10]; in [11]; in data set [12]) was over 50 µM each time. The IC50 (in the data set on C6 rat glioma cells [13]; in [14]) was over 50 µM throughout. Besides, the “Cytotoxic activity in words” value in [15] is “substantially inactive”. For the same compound, the “Variation of 1H NMR spectra on storage” value in [16] is “no significant variations”.
Take `CCC[c-]1c(C)c(C)c(C)c1C.CCC[c-]1c(C)c(C)c(C)c1C.[Cl-].[Cl-].[Cl-].[Cl-].[Ir+3].[Ir+3]` [Complex 1c]: the IC50 in data set [1] was found to be 55 ± 8 µM; in [2], 27 ± 2 µM; in data set [3], 28 ± 5 µM; in [4] it was 30 ± 4 µM; in [5], 38 ± 3 µM; in [6], 36 ± 2 µM. For the same compound, the IC50 in data set [7] amounted to 45 ± 8 µM; in the data set on B16 mouse melanoma cells [8], 44 ± 8 µM; in the data set on C6 rat glioma cells [9] it was 27 ± 3 µM; in the data set with B16 mouse melanoma cells [10], 28 ± 4 µM; in data set [11], 39 ± 7 µM; in data set [12] it was 13 ± 1 µM. For the same compound, the IC50 in the data set on C6 rat glioma cells [13] was 54 ± 5 µM; in [14] it was over 50 µM. For the same compound, in data set [15], the “Cytotoxic activity in words” value is given as “moderate cytotoxicity”. Besides, the “Variation of 1H NMR spectra on storage” value in [16] is “no significant variations”.
Regarding `CC1=C(C)[C](c2ccc(F)cc2)([Ir]([Cl])[Cl])C(C)=C1C.CC1=C(C)[C](c2ccc(F)cc2)([Ir]([Cl])[Cl])C(C)=C1C` [Complex 1d], the 50% inhibitory concentration (IC50) in [1] was 30 ± 0.4 µM; in [2], 8 ± 2 µM; in [3], 9.2 ± 0.5 µM; in data set [4] it was 8.1 ± 0.7 µM; in data set [5] it was 14.5 ± 1.5 µM; in data set [6], 19.1 ± 0.2 µM. For the same compound, the IC50 came out at 18.5 ± 0.4 µM in [7]; 28.1 ± 0.1 µM in the data set on B16 mouse melanoma cells [8]; 34 ± 2 µM in the data set with C6 rat glioma cells [9]; 20.4 ± 0.1 µM in the data set with B16 mouse melanoma cells [10]; 20.2 ± 0.3 µM in data set [11]; 16 ± 0.3 µM in data set [12]. The IC50 was found to be 49 ± 1 µM in the data set with C6 rat glioma cells [13] and 22.2 ± 0.1 µM in [14]. In addition, the “Cytotoxic activity in words” value in data set [15] is listed as “moderate cytotoxicity”. The “Variation of 1H NMR spectra on storage” value in [16] is “no significant variations”.
In the case of `CC1=C(C)[C](c2ccc(O)cc2)([Ir]([Cl])[Cl])C(C)=C1C.CC1=C(C)[C](c2ccc(O)cc2)([Ir]([Cl])[Cl])C(C)=C1C` [Complex 1e], the IC50 in data set [1] was 94 ± 8 µM; in data set [2] it was over 100 µM; in data set [3] it was 88 ± 12 µM; in [4], 80 ± 3 µM; in data set [15] (cell lines on which 1e is active, read-out: IC50 values, range over sensitive cell lines), 80 to 90 µM; in [5] it was 79 ± 8 µM. Further, the IC50 in [6] was over 100 µM; in data set [7] it was over 100 µM; with B16 mouse melanoma cells [8] it was over 100 µM; in the data set with C6 rat glioma cells [9] it was 90 ± 14 µM; in the data set on B16 mouse melanoma cells [10], over 100 µM; in the data set with C6 rat glioma cells [13] it was over 100 µM. This compound also gave an IC50 in data set [14] of over 100 µM. The “Cytotoxic activity in words” value in [15] is “substantially inactive”. Further, in [16] (aqueous media with DMSO), the “Behaviour in aqueous media in the presence of DMSO” value is reported as “rapid conversion into 3”.
For the compound `CS(C)=O.Cc1c(C)c(C)[c-](-c2ccc(O)cc2)c1C.[Cl][Ir+][Cl]` [Complex 3, (4-(2,3,4,5-tetramethylcyclopenta-1,4-dien-1-yl)phenol)dimethylsulfoxide iridium(III)dichloride], the half-inhibitory concentration (IC50) in data set [1], in [2], in [3], in [4], in data set [5] and in data set [6] was over 100 µM each time. Besides, the IC50 (in data set [7]; in the data set with B16 mouse melanoma cells [8]; in the data set with C6 rat glioma cells [9]; in the data set on B16 mouse melanoma cells [10]; in the data set with C6 rat glioma cells [13]; in data set [14]) was over 100 µM each time. Besides, the “Cytotoxic activity in words” value in data set [15] was “inactive”. Further, in data set [16] (DMSO-d6/D2O 2:1, 72 h at 37 °C, 1H NMR, dimethyl sulfone standard), the “Fraction of unaltered compound” value turned out to be 98%.
